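Method: 48-hour compound exposure of cells in 96-well plates, five concentrations, linear interpolation of endpoints. Abbreviation: GI50, concentration required for 50% inhibition of growth. The concentration for full growth arrest is given as TGI.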
Legend:
Assay in all cases: NCI anticancer screen, dose series, 48 h
786-0 renal = tested on: 786-0 renal
A498 renal = tested on: A498 renal
A549 NSCLC = tested on: A549 NSCLC
ACHN renal = tested on: ACHN renal
BT-549 breast = tested on: BT-549 breast
CAKI-1 renal = tested on: CAKI-1 renal
CCRF-CEM leukemia = tested on: CCRF-CEM leukemia
COLO 205 colon = tested on: COLO 205 colon
DU-145 prostate = tested on: DU-145 prostate
EKVX NSCLC = tested on: EKVX NSCLC
HCC-2998 colon = tested on: HCC-2998 colon
HCT-116 colon = tested on: HCT-116 colon
HCT-15 colon = tested on: HCT-15 colon
HL-60(TB) leukemia = tested on: HL-60(TB) leukemia
HOP-62 NSCLC = tested on: HOP-62 NSCLC
HOP-92 NSCLC = tested on: HOP-92 NSCLC
HS 578T breast = tested on: HS 578T breast
HT29 colon = tested on: HT29 colon
IGROV1 ovarian = tested on: IGROV1 ovarian
K-562 leukemia = tested on: K-562 leukemia
KM12 colon = tested on: KM12 colon
LOX IMVI melanoma = tested on: LOX IMVI melanoma
M14 melanoma = tested on: M14 melanoma
MALME-3M melanoma = tested on: MALME-3M melanoma
MCF7 breast = tested on: MCF7 breast
MDA-MB-231 breast = tested on: MDA-MB-231 breast
MDA-MB-435 = tested on: MDA-MB-435
MDA-MB-468 breast = tested on: MDA-MB-468 breast
MOLT-4 leukemia = tested on: MOLT-4 leukemia
NCI-H226 lung = tested on: NCI-H226 lung
NCI-H23 lung = tested on: NCI-H23 lung
NCI-H460 lung = tested on: NCI-H460 lung
NCI-H522 lung = tested on: NCI-H522 lung
NCI/ADR-RES ovarian = tested on: NCI/ADR-RES ovarian
OVCAR-3 ovarian = tested on: OVCAR-3 ovarian
OVCAR-4 ovarian = tested on: OVCAR-4 ovarian
OVCAR-5 ovarian = tested on: OVCAR-5 ovarian
OVCAR-8 ovarian = tested on: OVCAR-8 ovarian
PC-3 prostate = tested on: PC-3 prostate
RPMI-8226 leukemia = tested on: RPMI-8226 leukemia
RXF 393 renal = tested on: RXF 393 renal
SF-268 CNS = tested on: SF-268 CNS
SF-295 CNS = tested on: SF-295 CNS
SF-539 CNS = tested on: SF-539 CNS
SK-MEL-2 melanoma = tested on: SK-MEL-2 melanoma
SK-MEL-28 melanoma = tested on: SK-MEL-28 melanoma
SK-MEL-5 melanoma = tested on: SK-MEL-5 melanoma
SK-OV-3 ovarian = tested on: SK-OV-3 ovarian
SN12C renal = tested on: SN12C renal
SNB-19 CNS = tested on: SNB-19 CNS
SNB-75 CNS = tested on: SNB-75 CNS
SR leukemia = tested on: SR leukemia
SW-620 colon = tested on: SW-620 colon
T-47D breast = tested on: T-47D breast
TK-10 renal = tested on: TK-10 renal
U251 CNS = tested on: U251 CNS
UACC-257 melanoma = tested on: UACC-257 melanoma
UACC-62 melanoma = tested on: UACC-62 melanoma
UO-31 renal = tested on: UO-31 renal

In the case of `NS(=O)(=O)c1ccc(NC(=O)CSc2ccc(-c3ccc(Cl)cc3)nn2)c(Br)c1`, the GI50 (786-0 renal) is reported as 11.3 µM, the TGI (786-0 renal) is reported as 25.6 µM and the GI50 (A498 renal) is reported as 14 µM. It also gave a TGI (A498 renal) of 28 µM, a GI50 (A549 NSCLC) of 11.7 µM and a TGI (A549 NSCLC) of 31.8 µM. For the same compound, the GI50 (ACHN renal) was 6.92 µM, the TGI (ACHN renal) was 19.6 µM and the GI50 (BT-549 breast) was 14.1 µM. The TGI (BT-549 breast) was 44.3 µM, the GI50 (CAKI-1 renal) was 11 µM and the TGI (CAKI-1 renal) was 24.4 µM. For the same compound, the GI50 (CCRF-CEM leukemia) was > 100 µM, the TGI (CCRF-CEM leukemia) was > 100 µM and the GI50 (COLO 205 colon) was 20.7 µM. The TGI (COLO 205 colon) was 65.5 µM, the GI50 (DU-145 prostate) was 12.1 µM and the TGI (DU-145 prostate) was 27.2 µM. The GI50 (EKVX NSCLC) was 11 µM, the TGI (EKVX NSCLC) was 25.8 µM and the GI50 (HCC-2998 colon) was 11 µM. The TGI (HCC-2998 colon) was 40.4 µM, the GI50 (HCT-116 colon) was 10.3 µM and the TGI (HCT-116 colon) was 29.6 µM. It also gave a GI50 (HCT-15 colon) of 11.8 µM, a TGI (HCT-15 colon) of 25.8 µM and a GI50 (HL-60(TB) leukemia) of 50.9 µM. For the same compound, the TGI (HL-60(TB) leukemia) was > 100 µM, the GI50 (HOP-62 NSCLC) was 2930 nM and the TGI (HOP-62 NSCLC) was 10.8 µM. It also gave a GI50 (HOP-92 NSCLC) of 3.96 µM, a TGI (HOP-92 NSCLC) of 19.2 µM and a GI50 (HS 578T breast) of 2800 nM. For the same compound, the TGI (HS 578T breast) was 12.4 µM, the GI50 (HT29 colon) was 15.9 µM and the TGI (HT29 colon) was 46.8 µM. The GI50 (IGROV1 ovarian) was 23.3 µM, the TGI (IGROV1 ovarian) was 76.4 µM and the GI50 (K-562 leukemia) was 20.4 µM. The TGI (K-562 leukemia) was > 100 µM, the GI50 (KM12 colon) was 36.3 µM and the TGI (KM12 colon) was > 100 µM. The GI50 (LOX IMVI melanoma) was 10.4 µM, the TGI (LOX IMVI melanoma) was 24.2 µM and the GI50 (M14 melanoma) was 32.4 µM. For the same compound, the TGI (M14 melanoma) was > 100 µM, the GI50 (MALME-3M melanoma) was 9.36 µM and the TGI (MALME-3M melanoma) was 22.4 µM. For the same compound, the GI50 (MCF7 breast) was 10.1 µM, the TGI (MCF7 breast) was 25.3 µM and the GI50 (MDA-MB-231 breast) was 3.7 µM. The TGI (MDA-MB-231 breast) was 14.6 µM, the GI50 (MDA-MB-435) was 32.6 µM and the TGI (MDA-MB-435) was > 100 µM. It also gave a GI50 (MDA-MB-468 breast) of 8.32 µM, a TGI (MDA-MB-468 breast) of 25 µM and a GI50 (MOLT-4 leukemia) of 48.3 µM. For the same compound, the TGI (MOLT-4 leukemia) was > 100 µM, the GI50 (NCI-H226 lung) was 2620 nM and the TGI (NCI-H226 lung) was 9.4 µM. The GI50 (NCI-H23 lung) was 11.1 µM, the TGI (NCI-H23 lung) was 23.2 µM and the GI50 (NCI-H460 lung) was 7.22 µM. It also gave a TGI (NCI-H460 lung) of 22.3 µM, a GI50 (NCI-H522 lung) of 10.5 µM and a TGI (NCI-H522 lung) of 26.3 µM. For the same compound, the GI50 (NCI/ADR-RES ovarian) was 7.75 µM, the TGI (NCI/ADR-RES ovarian) was > 100 µM and the GI50 (OVCAR-3 ovarian) was 12.9 µM. For the same compound, the TGI (OVCAR-3 ovarian) was 27.6 µM, the GI50 (OVCAR-4 ovarian) was 10.4 µM and the TGI (OVCAR-4 ovarian) was 42.6 µM. It also gave a GI50 (OVCAR-5 ovarian) of 17.2 µM, a TGI (OVCAR-5 ovarian) of 51 µM and a GI50 (OVCAR-8 ovarian) of 10.3 µM. It also gave a TGI (OVCAR-8 ovarian) of 24.7 µM, a GI50 (PC-3 prostate) of 8.97 µM and a TGI (PC-3 prostate) of 49.2 µM. For the same compound, the GI50 (RPMI-8226 leukemia) was 96.9 µM, the TGI (RPMI-8226 leukemia) was > 100 µM and the GI50 (RXF 393 renal) was 2990 nM. It also gave a TGI (RXF 393 renal) of 13.8 µM, a GI50 (SF-268 CNS) of 7.22 µM and a TGI (SF-268 CNS) of 34.4 µM. The GI50 (SF-295 CNS) was 5.13 µM, the TGI (SF-295 CNS) was 16.1 µM and the GI50 (SF-539 CNS) was 4.15 µM. It also gave a TGI (SF-539 CNS) of 15.8 µM, a GI50 (SK-MEL-2 melanoma) of 15.8 µM and a TGI (SK-MEL-2 melanoma) of 32 µM. For the same compound, the GI50 (SK-MEL-28 melanoma) was 12.3 µM, the TGI (SK-MEL-28 melanoma) was 28.8 µM and the GI50 (SK-MEL-5 melanoma) was 10.2 µM. The TGI (SK-MEL-5 melanoma) was 21.9 µM, the GI50 (SK-OV-3 ovarian) was 4.39 µM and the TGI (SK-OV-3 ovarian) was 15.1 µM. It also gave a GI50 (SN12C renal) of 26.1 µM, a TGI (SN12C renal) of 83.3 µM and a GI50 (SNB-19 CNS) of 3.75 µM. The TGI (SNB-19 CNS) was 14.9 µM, the GI50 (SNB-75 CNS) was 1790 nM and the TGI (SNB-75 CNS) was 15 µM. The GI50 (SR leukemia) was 50.5 µM, the TGI (SR leukemia) was > 100 µM and the GI50 (SW-620 colon) was 32.8 µM. For the same compound, the TGI (SW-620 colon) was > 100 µM, the GI50 (T-47D breast) was 4.59 µM and the TGI (T-47D breast) was 21.8 µM. The GI50 (TK-10 renal) was 18 µM, the TGI (TK-10 renal) was 38.9 µM and the GI50 (U251 CNS) was 5.15 µM. For the same compound, the TGI (U251 CNS) was 21.7 µM, the GI50 (UACC-257 melanoma) was 31.4 µM and the TGI (UACC-257 melanoma) was > 100 µM. The GI50 (UACC-62 melanoma) was 13.7 µM, the TGI (UACC-62 melanoma) was 34.1 µM and the GI50 (UO-31 renal) was 29.5 µM. The TGI (UO-31 renal) was > 100 µM.

— PubChem BioAssay (NCI)
